# Where “and” joins values, the source holds several entries; their conditions need not be identical. Identical values can stand only once.
# B1: 19D12: Anti-IGFR antibody 19D12 (antibody, listed as Homo sapiens, V domains shown)
# VL: MSPSQLIGFLLLWVPASRGEIVLTQSPGTLSVSPGERATLSCRASQSIGSSLHWYQQKPGQAPRLLIKYASQSLSGIPDRFSGSGSGTDFTLTISRLEPEDFAVYYCHQSSRLPHTFGQGTKVEIKRT
# VH: MEFGLSWVFLVAILKGVQCEVQLVQSGGGLVKPGGSLRLSCAASGFTFSSFAMHWVRQAPGKGLEWISVIDTRGATYYADSVKGRFTISRDNAKNSLYLQMNSLRAEDTAVYYCARLGNFYYGMDVWGQGTTVTVSS
# Legend:
# H322 NSCLC cells = experiment: Proliferation assay (Cell Titer-Glo) with anti-IGFR1 antibody and a chemotherapeutic agent, H322 NSCLC cells; assay type: cell-based, human; conditions: H322, Day4, replicates
# Protocol: The ability of cells in culture to proliferate when exposed to varying concentrations of the 19D12/15H12 wild-type or 19D12/15H12 LCF/HCA anti-IGFR1 antibody and either paclitaxel, gefitinib, lonafarnib 4-hydroxy tamoxifen or doxorubicin was evaluated in this example.
# Cell Preparation. […] The cells were trypsinized, counted and resuspended at a concentration of 25000 cells/ml in 10% HI-FBS (heat-inactivated fetal bovine serum) RPMI medium containing NEAA (non-essential amino acids), L-Glu, MEM Vitamins and PS. 100 ul of cell suspension (2500 cells) was added to each well of a BD Falcon 96 well black, clear bottom TC treated plate. The cells were allowed to attach and spread overnight at 37° C. The 10% RPMI solution was replaced with 100 μl RPMI containing 2% HI-FBS containing NEAA, L-Glu, MEM Vitamins and PS.
# Solution Preparation. All assay reagents were prepared in RPMI containing 2% HI-FBS at 20× concentration and serial diluted for a total of 10 test concentrations per treatment. Every test point was prepared in triplicate on separate assay plates.
# Reagent 1 and 19D12/15H12 or 19D12/15H12 LCF/HCA were set up individually as dose responses as well as in combination with each other. Cell proliferation was measured on Day4.
# Assay. Cell proliferation was measured using the Promega Cell Titer-Glo Luminescent Cell Viability Assay (Promega Corp.; Madison, Wis.). This assay provided a method for determining the number of viable cells in culture based on quantitation of ATP in the culture, which indicates the presence of metabolically active cells.
# The assay reagents and assay plates were equilibrated to room temperature and prepared immediately before addition to the assay plates. One volume of assay reagent was added to each well of the assay plate and shaken on an orbital platform for at least ten minutes to allow for equilibration of the ATP reaction and to ensure total lysis of all cells in the assay plate. […] Luminescence was detected on Wallac 420 Plate Reader with stacker.
# The units in the tables (proliferation index) are arbitrary and are proportional to the number of viable cells observed in the culture under each respective condition.
# In Tables 2-6, “ug” indicates micrograms and “uM” indicates micromolar.
# H322 human NSCLC cells = experiment: In vivo tumor inhibition assay, NSCLC xenograft model H322; parameters: species or system nude mice; conditions: for Growth: Day 0 to 31
# Protocol: Five million H322 human NSCLC cells in Matrigel were inoculated subcutaneously into nude mice. Anti-IGFR antibody 19D12 and/or paclitaxel treatment was initiated when the tumor size reached ˜105-115 mm^3 at day 0. Both 19D12 and paclitaxel were dosed twice per week. Anti-IGFR antibody 19D12 was dosed at 0.5 mg per mouse. Paclitaxel was at 15 mpk. Ten animals per group. Tumor volumes were measured by Labcat.
# [1] = Day 0 (treatment start), H322 xenograft in nude mice
# [2] = 19D12 0.5 mg per mouse and/or Taxol 15 mpk, twice per week
# [3] = Day 31, 19D12 0.5 mg per mouse and/or Taxol 15 mpk, twice per week
Molecule,proliferation index (H322 NSCLC cells; Taxol alone 0.00256 ng/mL),proliferation index (H322 NSCLC cells; Taxol alone 0.064 ng/mL),proliferation index (H322 NSCLC cells; Taxol alone 8 ng/mL),proliferation index (H322 NSCLC cells; Taxol alone 40 ng/mL),proliferation index (H322 NSCLC cells; Taxol alone 200 ng/mL),proliferation index (H322 NSCLC cells; Taxol alone 1000 ng/mL),tumor volume (H322 human NSCLC cells; [1]) [mm3],Growth (H322 human NSCLC cells; [2]),% inhibition (tumor growth inhibition) (H322 human NSCLC cells; [3]) [%],tumor volume (H322 human NSCLC cells; [3]) [mm3]
"CC(=O)O[C@H]1C(=O)[C@@]2(C)[C@H]([C@H](OC(=O)c3ccccc3)[C@]3(O)C[C@H](OC(=O)[C@H](O)[C@@H](NC(=O)c4ccccc4)c4ccccc4)C(C)=C1C3(C)C)[C@]1(OC(C)=O)CO[C@@H]1C[C@@H]2O [Taxol, paclitaxel]",72498 and 78070 and 89290 and 71662 and 72122 and 77618 and 81720 and 80172 and 76744,75374 and 83082 and 74926 and 73584 and 75710 and 75356 and 87602 and 75690 and 76350,38354 and 33654 and 34598 and 31556 and 36038 and 35906 and 34498 and 53256 and 41418,22160 and 25204 and 22624 and 22020 and 22956 and 24152 and 23908 and 24834 and 22462,19372 and 23650 and 23668 and 23164 and 23482 and 24314 and 25752 and 23960 and 21420,20932 and 26882 and 24582 and 23884 and 23712 and 25890 and 24522 and 24842 and 20306,109.54,104.71,52,214.25
B1,,,,,,,106.57,66.45,75.50,173.02
